Laboratory results: patent US20100048594A1, “USE OF CYTOHESIN INHIBITORS FOR CHEMICALLY INDUCING LONGEVITY” (RHEINISCHE FRIEDRICH-WILHELMS UNIVERSITAT, priority 2006, published 2010)

Legend:
FoxO1A = experiment: Insulin-dependent phosphorylation of FoxO1A in HepG2 cells; type: cell-based, human; details: HepG2 cells, 5, 10, 15 μM compound, 100 nM insulin; based upon concentration
[1] = test system: genes that are controlled via the PI3K-dependent pathway of the insulin receptor signaling pathway; experiment: Expression of insulin-regulated gluconeogenic and glycolytic genes in mouse liver after feeding (quantitative PCR); type: in vivo, C57BL/6 mice; details: food with 0.9 μmol/g compound for 3 days, 40 μg insulin i.p.
Text: C57BL/6 mice (Charles River Laboratories) that had been kept in a pathogen-free animal facility, maintaining a 12-hour light/dark cycle, were used. The animals received standard mouse food (19% protein, 3.3% fat, 41.3% carbohydrates; ssniff Spezialdiäten GmbH) ad libitum. Male animals between the ages of 8 and 12 weeks were used.
A group of 6 C57BL/6 mice received standard mouse food mixed with 0.9 μmol/g of the compound according to formula (9) for a period of 3 days, while a control group of 6 animals received standard mouse food. The animals were then injected intraperitoneally with 100 μl normal saline solution (control group) or saline solution with 40 μg recombinant human insulin (Sigma). […]
Total RNA from 15 mg mouse liver in each case was isolated using the Absolutely RNA Kit (Stratagene) and the cDNA was produced via the reverse transcription of 2 μg RNA using the High Capacity cDNA Archive Kit (Applied Biosystems), according to the manufacturer's instructions. Quantitative PCR was performed in 10 μl batches in an iQ5-Cycler (BioRad) by means of the TaqMan Gene Expression Assay (Applied Biosystems) using primers (Applied Biosystems), against lgfbp1, Fbp2, Pck1, Pck2, G6 pc, Hk2, Pklr, Gck, Gckr, according to the manufacturer's instructions. […]

[2] = test system: Drosophila eukaryotic initiation factor 4E binding protein (d4EBP, Thor); experiment: Transcription rate of insulin target gene d4EBP in insulin-treated Drosophila S2 cells (real-time PCR); type: cell-based; details: 100 μM compound, 10 μg/ml human insulin, insulin alone less than 35%
Procedure: Drosophila Schneider 2 (S2) cells were cultivated in Schneider's Medium (PAN company) with 10% heat-inactivated fetal calf serum (FCS). 2×10^6 cells were drawn into 35 mm vessels at 25° C. to 80% confluence, washed one time in phosphate buffered saline solution (1×PBS, Gibco), and transferred for twelve hours to Schneider's Medium, without FCS. The cells were then preincubated for two hours with 0.5% DMSO containing Schneider's Medium, without FCS, with or without the compound according to formula (9) or formula (25), with the final concentrations of the compounds according to formulas (9) and (25) being 1 μM, 10 μM and 100 μM. This was followed by a four-hour stimulation with 10 μg/ml human insulin (Sigma).
After washing the cells two times with PBS, total RNA was then isolated from the cells using the NucleoSpin RNA II Kit (Macherey & Nagel), according to the manufacturer's instructions. The first strain cDNA synthesis was performed with every 500 ng RNA, using the QuantiTect Reverse Transcription Kit (Qiagen), according to the manufacturer's instructions. […]
The activity of the insulin signaling pathway was determined from the transcription rate of the insulin target gene Drosophila eukaryotic initiation factor 4E binding protein (d4EBP, Thor). […]

Akt = experiment: Insulin-dependent phosphorylation of Akt in HepG2 cells (immunoblot); type: cell-based, human; details: 100 nM insulin
Procedure: Human hepG2 cells (ECACC) were cultivated in EMEM medium (Cambrex) with the addition of 10% fetal calf serum. 10^5 cells were seeded in 2 ml medium in 6 well plates and were cultivated at 37° C. in a moist atmosphere with 5% CO2 for 1 to 3 days, before being used for experiments.
The expression of IGFBP1 (insulin-like growth factor binding protein) is controlled by insulin via the forkhead box transcription factors O1A (FoxO1A) and O3A (FoxO3A). Following insulin stimulation, the protein kinase B/Akt (PKB/Akt) is activated via phosphorylation, based upon the phosphoinositide-3-kinase (PI3K), reaches the nucleus where it phosphorylates the transcription factor O1A (FoxO1A), which leads to a decrease in the gene expression of IGFBP1, for example.
For human HepG2 cells (ECACC), serum was removed from the medium for 90 minutes, the cells were incubated for another 60 minutes with 5 μM, 10 μM and 15 μM of the compound according to formula (9), 200 nM Wortmannin or DMSO (dimethylsulfoxide) at a corresponding concentration, after which the cells were stimulated for 10 minutes with 100 nM insulin. The cells were then lysed in lysate buffer (20 mM Tris-Cl, pH 7.5, 150 mM NaCl, 1 mM EDTA, 1 mM EGTA, 2.5 mM sodium pyrophosphate, 1 mM β-glycerophosphate, 1 mM sodium vanadate, 1% Triton X-100) and protease inhibitor mix HP (Serva).
Standardized quantities of protein were separated out using SDS-PAGE, and were transferred to nitrocellulose membranes. For protein identification via immunoblotting, an antibody was used against the phosphorylated protein Akt, pAkt (Thr308) (cell signaling). Visualization was carried out using the Enhanced Chemiluminescence System (Millipore) using a VersaDoc 5000 CCD camera (BioRad), and the intensity of the bands was quantified using the QuantityOne software (BioRad).

COc1nc(-c2ccc3c(c2)OCO3)n(-c2ccc(NC(=O)CSc3ccccc3)cc2)n1 [Compound (9)]
insulin-dependent phosphorylation of FoxO1A (FoxO1A): inhibited
expression of the glycolytic gene induced by insulin [1]: decreased to a statistically significant degree
expression of the studied gluconeogenic gene, suppressed by insulin [1]: increased
transcription rate of d4EBP as % of that of the untreated control groups [2]: more than 85%
reduction in the phosphorylation of Akt as compared with phosphorylation following insulin stimulation (Akt; HepG2 cells, 10 μM compound): 50%
phosphorylation of Akt as % of the phosphorylation following insulin stimulation (Akt; HepG2 cells, 15 μM compound): approximately 25%
insulin-dependent phosphorylation of Akt (Akt; HepG2 cells, 5, 10, 15 μM compound, based upon concentration): inhibited
